In the NIST ThermoML archive (doi:10.1021/je200327s):
± gives the expanded uncertainty stated by the source. Values belong to the molecule of their own block, whether it stands above or below them.

Experiments:
[1] = 101.3 kPa, Liquid, Vibrating tube method
[2] = xn = mol fraction of the nth substance listed; conditions: 101 kPa, Liquid, Vibrating tube method

mass density ([1]; 298.2 K): 687.721 ± 0.28 kg/m3
mass density ([1]; 313.2 K): 675.225 ± 0.29 kg/m3
Compound: CC(C)CC(C)(C)C [2,2,4-trimethylpentane]

mass density ([1]; 298.2 K): 773.849 ± 0.27 kg/m3
Compound: C1CCCCC1 [cyclohexane]

mass density ([1]; 298.2 K): 726.1 ± 0.4 kg/m3
mass density ([1]; 313.2 K): 714.726 ± 0.35 kg/m3
Compound: CCCCCCCCCC [decane]

Compound: c1ccc2c(c1)sc1ccccc12 [dibenzothiophene] + CCCCCCCCCCC
mass density ([2]; 298.2 K, x1 = 0.0035): 738.065 ± 0.35 kg/m3
mass density ([2]; 298.2 K, x1 = 0.0069): 739.235 ± 0.35 kg/m3
mass density ([2]; 298.2 K, x1 = 0.0087): 739.863 ± 0.35 kg/m3
mass density ([2]; 298.2 K, x1 = 0.0186): 743.359 ± 0.35 kg/m3
mass density ([2]; 298.2 K, x1 = 0.0286): 746.909 ± 0.35 kg/m3
mass density ([2]; 298.2 K, x1 = 0.0342): 748.935 ± 0.35 kg/m3
mass density ([2]; 313.2 K, x1 = 0.0035): 726.939 ± 0.35 kg/m3
mass density ([2]; 313.2 K, x1 = 0.0069): 728.106 ± 0.35 kg/m3
mass density ([2]; 313.2 K, x1 = 0.0087): 728.741 ± 0.35 kg/m3
mass density ([2]; 313.2 K, x1 = 0.0186): 732.22 ± 0.35 kg/m3
mass density ([2]; 313.2 K, x1 = 0.0263): 735.021 ± 0.35 kg/m3
mass density ([2]; 313.2 K, x1 = 0.0286): 735.767 ± 0.35 kg/m3
mass density ([2]; 313.2 K, x1 = 0.0342): 737.778 ± 0.35 kg/m3
mass density ([2]; 313.2 K, x1 = 0.0436): 741.11 ± 0.36 kg/m3

Compound: c1ccc2c(c1)sc1ccccc12 [dibenzothiophene] + CCCCCCCCCCCC
mass density ([2]; 298.2 K, x1 = 0.0074): 747.569 ± 0.24 kg/m3
mass density ([2]; 298.2 K, x1 = 0.0094): 748.147 ± 0.24 kg/m3
mass density ([2]; 298.2 K, x1 = 0.0191): 751.276 ± 0.24 kg/m3
mass density ([2]; 298.2 K, x1 = 0.0285): 754.322 ± 0.24 kg/m3
mass density ([2]; 298.2 K, x1 = 0.0378): 757.354 ± 0.24 kg/m3
mass density ([2]; 313.2 K, x1 = 0.0037): 735.448 ± 0.25 kg/m3
mass density ([2]; 313.2 K, x1 = 0.0046): 735.694 ± 0.24 kg/m3
mass density ([2]; 313.2 K, x1 = 0.0074): 736.633 ± 0.24 kg/m3
mass density ([2]; 313.2 K, x1 = 0.0098): 737.333 ± 0.24 kg/m3
mass density ([2]; 313.2 K, x1 = 0.0142): 738.752 ± 0.24 kg/m3
mass density ([2]; 313.2 K, x1 = 0.0187): 740.177 ± 0.24 kg/m3
mass density ([2]; 313.2 K, x1 = 0.024): 741.874 ± 0.25 kg/m3
mass density ([2]; 313.2 K, x1 = 0.0305): 743.953 ± 0.25 kg/m3
mass density ([2]; 313.2 K, x1 = 0.0325): 744.662 ± 0.25 kg/m3
mass density ([2]; 313.2 K, x1 = 0.0372): 746.081 ± 0.25 kg/m3
mass density ([2]; 313.2 K, x1 = 0.0651): 755.317 ± 0.25 kg/m3

mass density ([1]; 298.2 K): 745.15 ± 0.24 kg/m3
mass density ([1]; 313.2 K): 734.325 ± 0.24 kg/m3
Compound: CCCCCCCCCCCC [dodecane]

mass density ([1]; 298.2 K): 679.857 ± 0.36 kg/m3
Compound: CCCCCCC [heptane]

mass density ([1]; 298.2 K): 655.039 ± 2.1 kg/m3
Compound: CCCCCC [hexane]

mass density ([1]; 298.2 K): 713.938 ± 0.36 kg/m3
Compound: CCCCCCCCC [nonane]

mass density ([1]; 298.2 K): 698.569 ± 1.4 kg/m3
mass density ([1]; 313.2 K): 686.365 ± 1.3 kg/m3
Compound: CCCCCCCC [octane]

mass density ([1]; 298.2 K): 624.932 ± 0.3 kg/m3
Compound: CCCCC [pentane]

mass density ([1]; 298.2 K): 736.786 ± 0.34 kg/m3
mass density ([1]; 313.2 K): 725.693 ± 0.35 kg/m3
Compound: CCCCCCCCCCC [undecane]
